Source: PMC10627047, “Flavone-based dual PARP-Tubulin inhibitor manifesting efficacy against endometrial cancer” (Journal of Enzyme Inhibition and Medicinal Chemistry, 2023)
Where two headings read alike, the source gives them in different places.

What was measured:
Ishikawa cell lines = experiment: In-vitro cytotoxicity (MTT cell viability assay); format: cell-based; conditions: Homo sapiens, read-out: IC50 values (Ishikawa cell lines, µM ± SD), in-vitro growth inhibition
Experimental: The cell growth inhibitory effects of the synthesised compounds were evaluated against Ishikawa cell lines. […] Forth, the synthesised compounds bearing a substituted phenyl ring at position 2 of the biaryl arm bearing benzopyrans were profiled for the cytotoxic effects. Noteworthy to mention that diverse substitutions with varied electronic effects viz fluorine (−I, +R), methoxy (−I, +R), and nitro (−I and − R) were made on the phenyl ring (position 2 of benzopyran). Also, the trimethoxy phenyl ring well established as an imperative structural feature of tubulin inhibitors was tethered to the benzopyran scaffold (20, 21).
Ishikawa cells (a human endometrial carcinoma of the epithelial cell) were kindly gifted by Dr. Geetanjali Sachdeva and Dr. Uddhav Chaudhari of National Institute for Research In Reproductive and Child Health (NIRRCH), Mumbai. […] The cells were maintained in RPMI medium supplemented with 10% Foetal bovine serum (FBS) and 100 IU/mL penicillin.
Mitochondrial activity was evaluated by MTT assay.[59] This assay is based on enzymatic reduction of the yellow-colored MTT dye to purple-colored formazan crystals by a variety of mitochondrial and cytosolic enzymes that are operational in viable cells. Briefly, […] (3000 cells/well) were seeded in 100 µL of medium into a 96-well plate and left to settle in a CO2 incubator. […] Then 150 μL of DMSO was added to each well to dissolve the formazan crystals. The optical density (OD) of each well was recorded using a microplate reader at a wavelength of 570 nm. The percentages of cell viability and growth inhibition were calculated according to the following equations. Cell viability (%) = [(OD of treated cells-OD of blank)/(OD of control-OD of blank) ×100].

[1] = Ishikawa cell lines, MTT, 48 h incubation, mean ± SD, at least three experiments

SMILES | melting point | IC50 (Ishikawa cell lines; [1]) | IC50 (Ishikawa cell lines; Ishikawa, 48 h)
COc1ccc(/C=C\c2cc(OC)c(OC)c(OC)c2)cc1O [Combretastatin, Combretastatin A-4, reference compound] |  | 4.21 ± 0.78 µM | 
O=c1cc(-c2ccc(F)cc2)oc2cc(-c3ccccc3)ccc12 [Compound 13, 2–(4-fluorophenyl)-7-phenyl-4H-chromen-4-one] | 193 to 196 °C | 2.03 ± 1.1 µM | 
COc1ccc(-c2cc(=O)c3ccc(-c4ccccc4)cc3o2)cc1 [Compound 7, 2–(4-methoxyphenyl)-7-phenyl-4H-chromen-4-one] | 172 to 175 °C | 6.3 ± 1.08 µM | 
COc1ccc(-c2cc(=O)c3ccc(-c4ccoc4)cc3o2)cc1 [Compound 8, 7-(Furan-3-yl)-2–(4-methoxyphenyl)-4H-chromen-4-one] | 173 to 176 °C | 3.2 ± 1.04 µM | 
COc1cc(-c2cc(=O)c3ccc(-c4ccc5ncccc5c4)cc3o2)cc(OC)c1OC [Compound 20, 7-(Quinolin-6-yl)-2–(3,4,5-trimethoxyphenyl)-4H-chromen-4-one] | 214 to 217 °C | > 10 µM | 
COc1ccc(-c2cc(=O)c3ccc(-c4ccc5[nH]ccc5c4)cc3o2)cc1 [Compound 12, 7-(1H-indol-5-yl)-2–(4-methoxyphenyl)-4H-chromen-4-one] | 129 to 132 °C | > 10 µM | 
O=c1cc(-c2ccccc2)oc2cc(-c3ccc4[nH]ccc4c3)ccc12 [Compound 6, 7-(1H-indol-5-yl)-2-phenyl-4H-chromen-4-one] | 246 to 249 °C | > 10 µM | 
COc1ccc(-c2cc(=O)c3ccc(-c4cccs4)cc3o2)cc1 [Compound 9, 2–(4-methoxyphenyl)-7-(thiophen-2-yl)-4H-chromen-4-one] | 180 to 184 °C | 3 ± 0.785 µM | 
O=c1cc(-c2ccccc2)oc2ccccc12 [X, reference compound] |  | > 10 µM | 
COc1ccc(-c2cc(=O)c3ccc(-c4ccc5c(c4)OCCO5)cc3o2)cc1 [Compound 10, 7–(2,3-dihydrobenzo[b][1,4]dioxin-6-yl)-2–(4-methoxyphenyl)-4H-chromen-4-one] | 183 to 186 °C | > 10 µM | 
O=c1cc(-c2ccc(F)cc2)oc2cc(-c3ccc4[nH]ccc4c3)ccc12 [Compound 18, 2–(4-fluorophenyl)-7-(1H-indol-5-yl)-4H-chromen-4-one] | 229 to 232 °C | > 10 µM | 
O=c1cc(-c2ccccc2)oc2cc(-c3ccoc3)ccc12 [Compound 2, 7-(Furan-3-yl)-2-phenyl-4H-chromen-4-one] | 163 to 167 °C | 1.5 ± 0.67 µM | 
O=C(c1cc(Cc2n[nH]c(=O)c3ccccc23)ccc1F)N1CCN(C(=O)C2CC2)CC1 [Olaparib, reference compound] |  |  | 3.91 ± 1.06 µM
O=c1cc(-c2ccccc2)oc2cc(-c3ccccc3)ccc12 [Compound 1, 2,7-diphenyl-4H-chromen-4-one] | 153 to 157 °C | 3 ± 1.09 µM | 
O=c1cc(-c2ccc(F)cc2)oc2cc(-c3ccc4ncccc4c3)ccc12 [Compound 17, 2–(4-fluorophenyl)-7-(quinolin-6-yl)-4H-chromen-4-one] | 236 to 240 °C | > 10 µM | 

Second part, led by results:

melting point | SMILES | IC50 (Ishikawa cell lines; [1]) | IC50 (Ishikawa cell lines; Ishikawa, 48 h)
221 to 224 °C | COc1ccc(-c2cc(=O)c3ccc(-c4ccc5ncccc5c4)cc3o2)cc1 [Compound 11, 2–(4-methoxyphenyl)-7-(quinolin-6-yl)-4H-chromen-4-one] | > 10 µM | 
181 to 184 °C | O=c1cc(-c2ccccc2)oc2cc(-c3ccc4c(c3)OCCO4)ccc12 [Compound 4, 7–(2,3-dihydrobenzo[b][1,4]dioxin-6-yl)-2-phenyl-4H-chromen-4-one] | > 10 µM | 
136 to 140 °C | O=c1cc(-c2ccccc2)oc2cc(-c3ccc4ncccc4c3)ccc12 [Compound 5, 2-phenyl-7-(quinolin-6-yl)-4H-chromen-4-one] | > 10 µM | 
255 to 258 °C | O=c1cc(-c2ccc([N+](=O)[O-])cc2)oc2cc(-c3ccc4[nH]ccc4c3)ccc12 [Compound 19, 7-(1H-indol-5-yl)-2–(4-nitrophenyl)-4H-chromen-4-one] | > 10 µM | 
246 to 250 °C | COc1cc(-c2cc(=O)c3ccc(-c4ccc5[nH]ccc5c4)cc3o2)cc(OC)c1OC [Compound 21, 7-(1H-indol-5-yl)-2–(3,4,5-trimethoxyphenyl)-4H-chromen-4-one] | > 10 µM | 
202 to 205 °C | O=c1cc(-c2ccc(F)cc2)oc2cc(-c3cccs3)ccc12 [Compound 15, 2–(4-fluorophenyl)-7-(thiophen-2-yl)-4H-chromen-4-one] | 1.5 ± 1.08 µM | 
186 to 189 °C | O=c1cc(-c2ccccc2)oc2cc(-c3cccs3)ccc12 [Compound 3, 2-phenyl-7-(thiophen-2-yl)-4H-chromen-4-one] | 2.1 ± 0.89 µM | 
193 to 196 °C | O=c1cc(-c2ccc(F)cc2)oc2cc(-c3ccc4c(c3)OCCO4)ccc12 [Compound 16, 7–(2,3-dihydrobenzo[b][1,4]dioxin-6-yl)-2–(4-fluorophenyl)-4H-chromen-4-one] | > 10 µM | 
